Converted amounts (≈) assume the structure as drawn. Like-named read-outs stand apart in the source and are kept apart here.
How the values were obtained:
physchem = settings: 37.2 °C, pH 6.8, aqueous buffer, thermodynamic from solid
Protocol: About 200 mg of sample is weighted into a 50 ml shaking flask and then 50 ml of medium with pH of 6.8 is added. The shaking flask is mixed well and placed in a shaker. The shaker temperature is set as 37.2° C. and the rotation speed is set as 50 rpm. The sample is taken at 4 hours and 0.45 μM filter membrane is used for filtration to collect filtrate. High-performance liquid chromatography is used for determination with wavelength at 286 nm.

[1] = cited from earlier work
[2] = cited from earlier work; remark: listed apart in the source
[3] = Determination of dissolution, USP II method (paddle method); format: physicochemical; settings: phosphate buffer pH 6.8, 1000 ml, 75 rpm
Protocol: In the following examples, the dissolution of the formulation is determined using the USP II method (paddle method) in the US Pharmacopoeia, with specific parameters as follows.
According to the above procedures, the dissolutions of Darolutamide in phosphate buffer, pH 6.8 were determined and the results were shown in Table 9.

[4] = system: non-metastatic castration-resistant prostate cancer (nmCRPC); settings: Phase III, cited from earlier work
[5] = single dose pharmacokinetic study

CC(O)c1cc(C(=O)N[C@@H](C)Cn2ccc(-c3ccc(C#N)c(Cl)c3)n2)n[nH]1 (stereo partly drawn) [Darolutamide, N-[(1S)-2-[3-(3-chloro-4-cyanophenyl)-1H-pyrazol-1-yl]-1-methylethyl]-5-(1-hydroxyethyl)-1H-pyrazole-3-carboxamide]
solubility at 4 h (physchem): 24.9 µg/mL (≈ 62.4 µM) | bioavailability ([1]; 300 mg, fasting state): about 30% | coefficient of variation (CV %) of AUC(0-4) ([1]; administration dosage of 300 mg): 69.6% | coefficient of variation (CV %) of AUC(0-4) ([1]; administration dosage of 600 mg): 41.4% | increase of AUC(0-4) in feeding state ([1]; after administration of 300 mg or 600 mg): 2.5 fold | increase of bioavailability in feeding state ([1]; single dose administration of 300 mg): 2.5 fold | increase of bioavailability in feeding state ([1]; single dose administration of 600 mg): 2.8 fold | end half-life [1, 5]: 10 to 15 h | median Tmax [1, 5]: 3 to 6 h | BCS classification ([2]; low solubility and high permeability): BCS Class II | solubility in aqueous media ([2]; pH 1-6.8): 14 to 23 µg/mL | Dissolution ([3]; 5 min): 7% | Dissolution ([3]; 15 min): 10% | Dissolution ([3]; 30 min): 9% | Dissolution ([3]; 45 min): 12% | reduction of the risk of disease metastasis or death ([4]; Darolutamide combined with ADT vs placebo combined with ADT): 59% | median metastasis free survival (MFS) ([4]; Darolutamide combined with ADT): 40.4 months

Reference: patent US20250000801A1, “DAROLUTAMIDE PHARMACEUTICAL COMPOSITION, PREPARATION METHOD THEREFOR AND USE THEREOF” (Sinotherapeutics Inc., priority 2021, published 2025)
